Structures can show the parent of a compound that is named as a salt. Where two headings read alike, the source gives them in different places.
Key:
[1] = test system: HCV subgenomic replicon in Huh-7 cells; experiment: Replicon assay, EC50 luciferase readout; type: cell-based, hepatitis C virus (HCV)
Experimental: The activities of compounds of the invention against HCV in a cellular environment were analysed using a replicon assay as described below.
Thus, Huh-7 cells persistently infected with an HCV-RNA construct (Bartenschlager, R. Hepatitis C replicons: potential role for drug development. Nature Rev. Drug Discov. 1, 911-916 (2002)) comprising: 5′ and 3′ non-translated regions (NTR); the non-structural genes NS3 to NS5b; as well as the G418 drug resistance gene, neomycin, (for selection of cells carrying HCV replicon RNA) fused to the firefly Luciferase reporter gene (pFK13889luc-ubi-neoNS3-3′ET), were used to determine the cell based antiviral activity of compounds using luciferase activity as an indirect readout of HCV RNA load. In this assay […] huh-7 cells persistently infected with the HCV subgenomic replicon construct above were platedwell in a 96 well tissue culture plate. The cells were allowed to attach overnight in DMEM medium supplemented with 10% FBS 1% NEAA, and 250 μgml gentamicin. The following day the medium was replaced with 200 μlwell of fresh medium as described above lacking gentamicin. […] Plates were then incubated at 37° C. in an atmosphere of 5% CO2 and air for 72 h. […] The plate was then read at 535 nm (excitation) and 590 nm (emission) on a SpectraMax Gemini reader (Molecular Devices) to determine the number of viable cells by measuring the conversion of rezasurin (Alamar blue) to resorufin in response to mitochondrial activity. In order to determine the antiviral effect of these compounds EC50 values were determined by measuring the luciferase activity of the cells. Alamar blue solution was removed from the wells and replaced with 100 μlwell of medium along with 100 μlwell of Bright-Glo reagent and incubated at room temperature for 5 minutes before transferring 100 μlwell to a white bottom 96 well plate to read in a luminometer as described in the Bright-Glo Luciferase Assay System protocol (promega).

[2] = biological target: T1, HCV NS3 protease (full length NS34a) (Hepatitis C virus genotype 1b, UniProt P26663); experiment: HCV NS3 protease assay (FRET, full length NS34a); type: biochemical
T1 construct: The protease activity of the full length NS34a was measured using a FRET-based assay; made in house
T1 sequence (P26663 1658-1711): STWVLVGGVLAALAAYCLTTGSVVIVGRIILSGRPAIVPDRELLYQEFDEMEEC
T1 sequence (P26663 1027-1657): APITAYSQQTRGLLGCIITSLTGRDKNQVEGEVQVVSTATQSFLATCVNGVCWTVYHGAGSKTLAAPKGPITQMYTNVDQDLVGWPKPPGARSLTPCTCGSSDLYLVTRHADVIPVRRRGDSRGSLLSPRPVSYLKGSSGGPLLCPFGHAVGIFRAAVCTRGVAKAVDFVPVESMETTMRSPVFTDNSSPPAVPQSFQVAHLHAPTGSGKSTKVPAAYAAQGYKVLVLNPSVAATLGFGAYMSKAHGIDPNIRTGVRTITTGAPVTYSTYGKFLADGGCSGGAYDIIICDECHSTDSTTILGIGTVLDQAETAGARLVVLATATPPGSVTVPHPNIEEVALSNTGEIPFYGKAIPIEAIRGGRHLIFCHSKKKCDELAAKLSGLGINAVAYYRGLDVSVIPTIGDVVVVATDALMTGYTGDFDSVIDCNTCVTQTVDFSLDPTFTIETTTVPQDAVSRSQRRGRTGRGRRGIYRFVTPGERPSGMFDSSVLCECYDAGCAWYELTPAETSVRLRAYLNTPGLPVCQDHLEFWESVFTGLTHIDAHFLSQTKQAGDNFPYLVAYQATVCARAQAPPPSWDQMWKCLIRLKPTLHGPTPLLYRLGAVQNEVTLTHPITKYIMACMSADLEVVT
How it was run: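 FRET readout over 30 minutes at room temperature, with IC50 fitted to initial rates from replicate curves. Enzyme was full-length NS34a; substrate a peptide from the NS4AB cleavage site labelled with QXL520 and 5-FAMsp; buffer 50 mM Tris pH8 containing 20 mM DTT, 1% CHAPS, 10% glycerol and 5% DMSO.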

[3] = Hepatitis C virus, Huh-7, 72 h, Huh-7 replicon cells, 72 h, single value, or second value of a pair x:y, read-out: Activity EC50 (μM) (EC50 luciferase readout)
[4] = protease activity of full length NS34a, FRET peptide substrate, read-out: Activity IC50
[5] = IC50 values of 10-150 μM against the protease activity of the full length NS34a, or at least 40% inhibition of protease activity at a concentration of 100 μM
[6] = Huh-7 replicon cells, 72 h, single value, or second value of a pair x:y, read-out: Activity EC50 (μM) (EC50 luciferase readout)
[7] = Hepatitis C virus, Huh-7, replicon assay, set in line with previous observations, read-out: pre-determined EC50 set for the combination experiments
[8] = Hepatitis C virus, Huh-7, 72 h, read-out: Activity EC50 (μM) (EC50 luciferase readout), Huh-7 replicon cells, 72 h, single value, or second value of a pair x:y

| Structure (SMILES) | EC50 [1, 3] [µM] | further results |
| --- | --- | --- |
| CCC(NCC(C)O)c1ccc(F)c(Oc2ccccc2)c1F (mixture of isomers) [Example 53, 1-[1-(2,4-Difluoro-3-phenoxy-phenyl)-propylamino]-propan-2-ol.hydrochloride] | 26 | IC50 [2, 4]: 5000 nM |
| N[C@H](c1ccc(F)c(Oc2ccccc2)c1F)[C@H]1CCOC1 (relative stereo) [Example 61, C-(2,4-Difluoro-3-phenoxy-phenyl)-C-(tetrahydrofuran-3-yl)-methylamine.hydrochloride] | > 30 | IC50 [2, 5]: 10000 to 150000 nM |
| N[C@@H](c1ccc(F)c(Oc2ccccc2)c1F)[C@H]1CCOC1 (relative stereo) [Example 62, C-(2,4-Difluoro-3-phenoxy-phenyl)—C-(tetrahydro-furan-3-yl)-methylamine.hydrochloride] | > 30 | IC50 [2, 4]: 7200 nM |
| CC(CO)NC(c1ccc(F)c(Oc2ccccc2)c1F)C1CCNCC1 (single isomer, unassigned) [Example 75, 2-{[(2,4-Difluoro-3-phenoxy-phenyl)-piperidin-4-yl-methyl]-amino}-propan-1-ol.dihydrochloride] | 4.8 | IC50 [2, 4]: 3300 nM |
| CC(CO)NC(c1ccc(F)c(Oc2ccccc2)c1F)C1CCNCC1 (single isomer, unassigned) [Example 76, 2-{[(2,4-Difluoro-3-phenoxy-phenyl)-piperidin-4-yl-methyl]-amino}-propan-1-ol.dihydrochloride] | – | EC50 [1, 6]: 6 µM; IC50 [2, 4]: 2900 nM |
| CC[C@H](N[C@H](C)CC(N)=O)c1ccc(Cl)c(Oc2ccccc2)c1F (single isomer, unassigned) [Example 83] | 17 | IC50 [2, 4]: 6700 nM |
| CC[C@@H](N[C@@H](C)c1ccc[nH]c1=O)c1ccc(Cl)c(Oc2ccccc2)c1F (single isomer, unassigned) [Example 315] | > 10 | IC50 [2, 4]: 3500 nM |
| CC(C)(C)OC(=O)N[C@H]1CCCCC/C=C\[C@@H]2C[C@@]2(C(=O)NS(=O)(=O)C2CC2)NC(=O)[C@@H]2C[C@@H](OC(=O)N3Cc4cccc(F)c4C3)CN2C1=O [Danoprevir, reference compound] | – | EC50 [1, 7]: 0.001 µM |
| CC(C)C(N)c1ccc(F)c(Oc2ccccc2)c1F (stereo not drawn) [Example 1, 1-(2,4-Difluoro-3-phenoxy-phenyl)-2-methyl-propylamine. hydrochloride] | 15 | IC50 [2, 4]: 2500 nM |
| CC(C)CC(N)c1ccc(F)c(Oc2ccccc2)c1F (stereo not drawn) [Example 2] | 2.4 | IC50 [2, 4]: 2200 nM |
| CCC(N)c1ccc(F)c(Oc2ccccc2)c1F (stereo not drawn) [Example 3, 1-(2,4-Difluoro-3-phenoxy-phenyl)-propylamine. hydrochloride] | 22 | IC50 [2, 4]: 2100 nM |
| CC(N)c1ccc(F)c(Oc2ccccc2)c1F (stereo not drawn) [Example 4] | 13 | IC50 [2, 4]: 7000 nM |
| CCC(N[C@H]1CC[C@H](N)CC1)c1ccc(F)c(Oc2ccccc2)c1F (stereo partly drawn) [Example 5, Trans-N-[1′-(2,4-difluoro-3-phenoxy-phenyl)-propyl]-cyclohexane-1,4-diamine] | 0.13 | IC50 [2, 4]: 2000 nM |
| CCC(N[C@H]1CC[C@@H](N)CC1)c1ccc(F)c(Oc2ccccc2)c1F (stereo partly drawn) [Example 6, cis-N-[1-(2,4-Difluoro-3-phenoxy-phenyl)-propyl]-cyclohexane-1,4-diamine dihydrochloride] | 0.14 | IC50 [2, 5]: 10000 to 150000 nM |
| CC[C@@H](Nc1ncc(CN)cn1)c1ccc(Cl)c(Oc2ccccc2)c1F [Example 8, (5-Aminomethyl-pyrimidin-2-yl)-[(R)-1-(4-chloro-2-fluoro-3-phenoxy-phenyl)-propyl]-amine hydrochloride] | 10 | IC50 [2, 4]: 330 nM |
| CCC(NC1CCCNC1)c1ccc(F)c(Oc2ccccc2)c1F (stereo not drawn) [Example 18] | – | EC50 [1, 6]: 1.6 µM |
| CCNC(=O)CNC(=O)C[C@H](C)N[C@H](CC)c1ccc(Cl)c(Oc2ccccc2)c1F [Example 243] | 3.8 | – |
| CC[C@H](NCC(N)=O)c1ccc(F)c(Oc2ccccc2)c1F [Example 301] | 26 | – |
| CC[C@H](NCCC(=O)NO)c1ccc(F)c(Oc2ccccc2)c1F [Example 302] | 6.9 | – |
| CN[C@H](CCOC)c1ccc(Cl)c(Oc2ccccc2)c1F [Example 359] | – | IC50 [2, 5]: 10000 to 150000 nM |
| CC[C@@H](N[C@@H](C)CC(N)=O)c1ccc(Cl)c(Oc2ccc(Cl)cc2)c1F.Cl [Example 400] | 3 | – |
| CC[C@@H](N[C@@H](C)CC(N)=O)c1ccc(Cl)c(Oc2ccc(N)cc2)c1F.Cl [Example 404] | 0.023 | – |
| CC[C@@H](N[C@@H](C)CC(N)=O)c1ccc(Cl)c(Oc2ccc(NC(C)=O)cc2)c1F [Example 405] | 0.3 | – |

| Structure (SMILES) | EC50 [1, 3] [µM] | further results |
| --- | --- | --- |
| CC[C@@H](N[C@@H](C)CC(N)=O)c1ccc(Cl)c(Oc2ccc(NC(=O)N(C)C)cc2)c1F.Cl [Example 407] | 0.11 | – |
| CC[C@@H](N[C@@H](C)CC(N)=O)c1ccc(Cl)c(Oc2ccc3c(c2)OCCN3)c1F.Cl [Example 409] | 0.02 | – |
| CC[C@@H](N[C@@H](C)CC(N)=O)c1ccc(Cl)c(Oc2ccc3c(c2)OCCO3)c1F.Cl [Example 410] | 0.31 | – |
| CC[C@@H](N[C@@H](C)CC(N)=O)c1ccc(Cl)c(Oc2ccccn2)c1F.Cl [Example 413] | 3 | – |
| CC[C@@H](N[C@@H](C)CC(N)=O)c1ccc(Cl)c(Oc2ccc(-c3ccn[nH]3)cc2)c1F.Cl [Example 417] | 0.91 | – |
| CC[C@@H](N[C@@H](C)CC(N)=O)c1ccc(Cl)c(Oc2ccc(F)c(C(N)=O)c2)c1F.Cl [Example 419] | 0.82 | – |
| CC[C@@H](N[C@@H](C)CC(N)=O)c1ccc(Cl)c(Oc2ccc(F)c(C(=O)NC)c2)c1F.Cl [Example 421] | 0.4 | – |
| CC[C@@H](N[C@@H](C)CC(N)=O)c1ccc(Cl)c(Oc2ccc(F)c(C(=O)N3CCOCC3)c2)c1F.Cl [Example 423] | 1.4 | – |
| CC[C@@H](N[C@@H](C)CC(N)=O)c1ccc(Cl)c(Oc2ccc(F)c(C(=O)N(C)C)c2)c1F.Cl [Example 425] | 0.35 | – |
| CC[C@@H](N[C@@H](C)CC(N)=O)c1ccc(Cl)c(Oc2cnc(N)cn2)c1F.Cl [Example 429] | 3 | – |
| CC[C@@H](N[C@@H](C)CC(N)=O)c1ccc(Cl)c(Oc2ncccn2)c1F.Cl [Example 431] | > 3 | – |
| CC[C@@H](N[C@@H](C)CC(N)=O)c1ccc(Cl)c(Oc2ncc(N)cn2)c1F.Cl [Example 433] | 1.6 | – |
| CC[C@@H](N[C@@H](C)CC(N)=O)c1ccc(Cl)c(Oc2nc3ccccc3s2)c1F.Cl [Example 435] | 3 | – |
| CC[C@@H](N[C@@H](C)CC(N)=O)c1ccc(Cl)c(Oc2nc3cnccc3s2)c1F.Cl [Example 438] | > 3 | – |
| CC[C@@H](N[C@@H](C)CC(N)=O)c1ccc(Cl)c(Oc2ccc(C(N)=O)cc2)c1F.Cl [Example 444] | – | EC50 [1, 8]: 0.82 µM |
| C[C@@H](CC(N)=O)N[C@@H](c1ccc(Cl)c(Oc2ccc(N)nc2)c1F)C1CC1.Cl [Example 454] | – | EC50 [1, 8]: 0.16 µM |
| C[C@@H](CC(N)=O)N[C@@H](c1ccc(Cl)c(Oc2ccc(C(N)=O)nc2)c1F)C1CC1.Cl [Example 456] | > 3 | – |
| CC[C@@H](N[C@@H](C)CC(N)=O)c1ccc(Cl)c(Oc2ccc(NC(C)=O)nc2)c1Cl [Example 458] | 3.5 | – |
| C[C@@H](CC(N)=O)N[C@@H](c1ccc(Cl)c(Oc2ccccc2)c1F)C1CC1 [Example 459] | 0.63 | – |
| CC[C@@H](NC(C)(C)CC(N)=O)c1ccc(Cl)c(Oc2ccc(N)nc2)c1F [Example 460, 3-{[(1R)-1-{3-[(6-aminopyridin-3-yl)oxy]-4-chloro-2-fluorophenyl}propyl]amino}-3-methylbutanamide hydrochloride (1:1)] | 0.13 | – |
| CC[C@@H](N[C@@H](C)CC(N)=O)c1ccc(Cl)c(Oc2ccccc2)c1C [Example 468] | > 3 | – |
| [2H]C([2H])([2H])C([2H])([2H])[C@@H](N[C@@H](C)CC(N)=O)c1ccc(Cl)c(Oc2ccccc2)c1F [Example 472] | > 3 | – |
| CC(C)(C)C#Cc1cc(N(C(=O)[C@H]2CC[C@H](C)CC2)[C@H]2CC[C@H](O)CC2)c(C(=O)O)s1 [VX-222, Lomibuvir, reference compound] | – | EC50 [1, 7]: 0.003 µM |
